Results as given in publication PMC7155171, “Probing the Open Global Health Chemical Diversity Library for Multistage-Active Starting Points for Next-Generation Antimalarials” (ACS Infectious Diseases, 2020).
Like-named read-outs stand apart in the source and are kept apart here.

How the values were obtained:
[1] = system: HepG2-A16-CD81 hepatocytes; experiment: cells; parameters: Uninfected hepatocyte viability, CellTiter-Glo luminescence; conditions: sheet CDD Export 1;, cytotoxicity primary screen, read-out: Table S5. Liver stage reconfirmation data / HepG2 Cytotoxicity primary screen (2uM): % Inhibition
Procedure: For the screen, 5 μL of HepG2-A16-CD81 hepatocytes containing 3 × 10^3 cells was seeded into 1536-well plates, which had been prespotted with 10 nL of library compound (2 μM final assay concentration (Figure 1)) and incubated overnight. For PbLuc infected plates, approximately 750 purified sporozoites in 5 μL of screening media were added to each well and incubated for 48 h before measuring luciferase activity. Compounds were tested for toxicity in parallel (see Methods) by measuring uninfected hepatocyte viability using CellTiter-Glo. […] This hit rate was slightly lower than expected for an agnostic library, which prompted us to rescreen the entire library at 10 μM. The PbLuc and cytotoxicity assay plates for this second replicate would be stamped in-house with 50 nL of library compound per well, using the same compound plates as the sexual stage screen described below. All the assay parameters were kept similar, except the change in concentration and shortening the time the compounds spent in each well prior to infection. […] All potential false positive effectors from the CellTiter-Glo assay were filtered from subsequent studies (Table S1). Naturally, there were more primary hits from the 10 μM than the 2 μM screen due to the higher testing concentration. For reconfirmation, we sourced all the hits that inhibited PbLuc at >70% and mean HepG2 at <50% in the 2 μM screen or PbLuc at >60% in both 2 and 10 μM screens and mean HepG2 at <50%. The resulting compounds were acquired as DMSO stocks and retested in the dose response (50–2.82 × 10^–4 μM or 25–141.13 × 10^–6 μM) against PbLuc and uninfected hepatocytes (Table S5). […] The majority of these compounds were weak inhibitors, although 18 submicromolar hits were found (Table S5).

[2] = system: P. falciparum (NF54) stage V gametocytes; experiment: Stage V gametocyte viability assay (MitoTracker Red CMXRos high content imaging); assay type: cell-based, Plasmodium falciparum; conditions: Plasmodium falciparum; for inhibition at 2 µM: read-out: Stg V Gam primary screen: Inhibition % (2uM) (n=2)
[3] = system: P. falciparum Dd2 (PfLuc) line expressing firefly luciferase, asexual blood stage; experiment: microbe, parasite or virus in culture; assay type: cell-based, Plasmodium falciparum; conditions: Plasmodium falciparum
P. falciparum Dd2 = experiment: SYBR green I asexual blood stage proliferation assay (96 h); assay type: cell-based, Plasmodium falciparum; conditions: Plasmodium falciparum, DD2, 11-pt dose response, 96hr
[4] = NF54, 72 h, read-out: Stg V Gam dose response IC50 (µM) (n=3), 10-point dose response, n=3, 72 h
[5] = DD2, read-out: CDD P. falciparum Luciferase ABS 11-pt Reconfirmation Dose Response (48hr): IC50 (μM), 11-pt dose response, 48hr
[6] = DD2, 8-pt dose response, 96hr, read-out: CDD P. falciparum Luciferase ABS 8-pt Reconfirmation Dose Response (96hr): IC50
[7] = DD2, 8-pt dose response, 96hr, read-out: CDD P. falciparum Luciferase ABS 8-pt Reconfirmation Dose Response (96hr): Maximum inhibition (%)
[8] = DD2, 11-pt dose response, 48hr, read-out: CDD P. falciparum Luciferase ABS 11-pt Reconfirmation Dose Response (48hr): Maximum inhibition (%)
[9] = DD2, 11-pt dose response, 96hr, read-out: CDD P. falciparum Luciferase ABS 11-pt Reconfirmation Dose Response (96hr): IC50
[10] = DD2, 11-pt dose response, 96hr, read-out: CDD P. falciparum Luciferase ABS 11-pt Reconfirmation Dose Response (96hr): Maximum inhibition (%)
[11] = Sybr Green I, read-out: CDD P. falciparum Sybr Green I ABS 11-pt Reconfirmation Dose Response (96hr): IC50
[12] = Sybr Green I, read-out: CDD P. falciparum Sybr Green I ABS 11-pt Reconfirmation Dose Response (96hr): Maximum inhibition (%)
[13] = NF54, 72 h, read-out: GAM V IC50, stage V gametocytes, 72 h
[14] = DD2, read-out: P. falciparum Luciferase ABS 11-pt Reconfirmation Dose Response (48hr): IC50, 11-pt dose response, 48hr
[15] = DD2, 8-pt dose response, 96hr, read-out: P. falciparum Luciferase ABS 8-pt Reconfirmation Dose Response (96hr): IC50
[16] = DD2, 8-pt dose response, 96hr, read-out: P. falciparum Luciferase ABS 8-pt Reconfirmation Dose Response (96hr): Maximum inhibition (%)
[17] = DD2, 11-pt dose response, 96hr, read-out: P. falciparum Luciferase ABS 11-pt Reconfirmation Dose Response (96hr): IC50
[18] = DD2, 11-pt dose response, 96hr, read-out: P. falciparum Luciferase ABS 11-pt Reconfirmation Dose Response (96hr): Maximum inhibition (%)
[19] = read-out: P. falciparum Sybr Green I ABS 11-pt Reconfirmation Dose Response (96hr): IC50
[20] = read-out: P. falciparum Sybr Green I ABS 11-pt Reconfirmation Dose Response (96hr): Maximum inhibition (%)

O=S(=O)(c1ccc(Cl)s1)N1CCN(Cc2nc(-c3ccco3)cs2)CC1 [DDD01027755]
inhibition at 2 µM [1]: 12.1%

CC(C)(C)NC(=O)N1CCC(Oc2ccc(C(F)(F)F)cn2)CC1 [DDD01028321]
inhibition at 2 µM [1]: -4.73%

COc1cccc(CN2CCc3nc(C(=O)NCC(C)C)sc3CC2)c1 [DDD01030710]
inhibition at 2 µM [1]: -10.2%

CC(=O)Nc1ncc(S(=O)(=O)Nc2ccc3c(c2)OCCO3)s1 [DDD01037671]
inhibition at 2 µM [1]: -2.36%

Cn1cncc1CN1CCCC1c1cncc(Oc2ccc(Cl)cc2)n1 (stereo not shown) [DDD01059295]
inhibition at 2 µM [1]: 0.825%

Cc1ncc(CN2CCOC(c3ccc(-c4ccccc4F)cn3)C2)s1 (stereo not shown) [DDD01059493]
inhibition at 2 µM [1]: -6.23%

Cc1cc(-c2cnc(NCc3cccnc3)nc2C(C)(C)C)on1 [DDD01061148]
inhibition at 2 µM [1]: -8.43%

COC1CCN(c2ccc(NC(=O)C3CC3)cc2C(F)(F)F)CC1 [DDD01061774]
inhibition at 2 µM [1]: 12.4%

N#Cc1c(Cl)nsc1NCc1cccnc1OCC(F)(F)F [DDD01067853]
inhibition at 2 µM [1]: 4.29%

COC(=O)c1sc(NCc2ccc(N3CCC(O)CC3)c(F)c2)nc1Cl [DDD01073922]
inhibition at 2 µM [1]: 5.85%

Cc1nc(C(=O)NC2CCN(CCOc3ccc(Br)cc3)CC2)cs1 [DDD01079205]
inhibition at 2 µM [1]: 17.6%

N#Cc1c(Cl)nsc1NCC1(c2ccccc2)CCC1 [DDD01079347]
inhibition at 2 µM [1]: 12%

CCc1ccc(-c2ncc3c(n2)N(C)CCN(CCN(C)C)C3=O)cc1 [DDD01235938]
inhibition at 2 µM [1]: 4.38%

CN(CCO)Cc1cc(Cl)ccc1OCC(O)CN1CCCCCC1 (stereo not shown) [DDD01243745, CN(CCO)CC1=CC(Cl)=CC=C1OCC(O)CN1CCCCCC1]
IC50 [2, 4]: 5.69 µM | inhibition at 2 µM ([2]; NF54, 72 h): 54.7% | IC50 [3, 5]: 2.92 µM | IC50 [3, 6]: 0.95 µM | Emax [3, 7]: 93.5% | Emax [3, 8]: 97% | IC50 [3, 9]: 1.45 µM | Emax [3, 10]: 98.8% | IC50 (P. falciparum Dd2; [11]): 1090 nM | Emax (P. falciparum Dd2; [12]): 99.1%

Cc1ccc(Sc2ccc(CN3CCC4(CCCNC4=O)C3)o2)cc1 (stereo not shown) [DDD01244322]
inhibition at 2 µM [1]: -4.2%

OC1(CN2CCC(Oc3cccc(C(F)(F)F)c3)CC2)CCNC1 (stereo not shown) [DDD01245291, OC1(CN2CCC(CC2)OC2=CC=CC(=C2)C(F)(F)F)CCNC1]
IC50 [2, 4]: 2.42 µM | inhibition at 2 µM ([2]; NF54, 72 h): 50.1% | IC50 [3, 5]: 2.08 µM | IC50 [3, 6]: 0.88 µM | Emax [3, 7]: 93.8% | Emax [3, 8]: 95.9% | IC50 [3, 9]: 0.958 µM | Emax [3, 10]: 99.5% | IC50 (P. falciparum Dd2; [11]): 1930 nM | Emax (P. falciparum Dd2; [12]): 96.4%

Clc1ccccc1-c1cc(CNc2ncnc3c2CCNCC3)no1 [DDD01247009]
inhibition at 2 µM [1]: -1.07%

CCc1ccc2nc(NCCCN(CCO)CCO)cc(C)c2c1 [DDD01247914, CCC1=CC=C2N=C(NCCCN(CCO)CCO)C=C(C)C2=C1]
IC50 [2, 4]: 3.72 µM | inhibition at 2 µM ([2]; NF54, 72 h): 59.7% | IC50 [3, 5]: 3.94 µM | IC50 [3, 6]: 1.07 µM | Emax [3, 7]: 91.1% | Emax [3, 8]: 92.3% | IC50 [3, 9]: 1.68 µM | Emax [3, 10]: 99.8% | IC50 (P. falciparum Dd2; [11]): 3610 nM | Emax (P. falciparum Dd2; [12]): 94%

CCc1[nH]c2c(CNc3cc(C)nc(NC)n3)cc(C)cc2c1C [DDD01250162, CCC1=C(C)C2=CC(C)=CC(CNC3=CC(C)=NC(NC)=N3)=C2N1]
IC50 [2, 13]: 4.9 µM | IC50 [2, 4]: 4.9 µM | inhibition at 2 µM ([2]; NF54, 72 h): 64.1% | IC50 [3, 14]: > 12.5 µM | IC50 [3, 15]: 1.31 µM | Emax [3, 16]: 92.3% | Emax ([3]; DD2, 11-pt dose response, 48hr, read-out: P. falciparum Luciferase ABS 11-pt Reconfirmation Dose Response (48hr): Maximum inhibition (%)): 38.8% | IC50 [3, 17]: > 12.5 µM | Emax [3, 18]: 45.4% | IC50 (P. falciparum Dd2; [19]): 1550 nM | Emax (P. falciparum Dd2; [20]): 94.1%

CCc1[nH]c2c(CNc3nc(C)cc(NC)n3)cc(C)cc2c1C [DDD01251782, CCC1=C(C)C2=CC(C)=CC(CNC3=NC(C)=CC(NC)=N3)=C2N1]
IC50 ([2]; NF54, read-out: Stg V Gam dose response IC50 (µM) (n=3), 10-point dose response, n=3, 72 h): 3.76 µM | inhibition at 2 µM ([2]; NF54, Table S6, 2uM, n=2, 72 h): 53.8% | IC50 ([2]; NF54, stage V gametocytes, 72 h, read-out: GAM V IC50): 3.76 µM | IC50 [3, 5]: 0.765 µM | IC50 [3, 6]: 0.63 µM | Emax [3, 7]: 95.7% | IC50 [3, 9]: 0.158 µM | Emax [3, 10]: 98.4% | IC50 (P. falciparum Dd2; [11]): 696 nM | Emax (P. falciparum Dd2; [12]): 98%

NCC1CCN(C2CCN(c3ccc(-c4ccco4)cc3)CC2)C1 (stereo not shown) [DDD01252361, NCC1CCN(C1)C1CCN(CC1)C1=CC=C(C=C1)C1=CC=CO1]
IC50 [2, 4]: 1.9 µM | inhibition at 2 µM ([2]; NF54, 72 h): 80.5% | IC50 [3, 5]: 3 µM | IC50 [3, 6]: 0.4 µM | Emax [3, 7]: 95.9% | Emax [3, 8]: 98.8% | IC50 [3, 9]: 1.8 µM | Emax [3, 10]: 100% | IC50 (P. falciparum Dd2; [11]): 605 nM | Emax (P. falciparum Dd2; [12]): 95.1%

CCc1ccc(C2c3nc[nH]c3CCN2Cc2nccn2CC)nc1 (stereo not shown) [DDD01254473, CCN1C=CN=C1CN1CCC2=C(NC=N2)C1C1=CC=C(CC)C=N1]
IC50 [2, 4]: 0.056 µM | inhibition at 2 µM ([2]; NF54, 72 h): 80.6% | IC50 [3, 14]: 1.54 µM | IC50 [3, 15]: 1.2 µM | Emax [3, 16]: 91.2% | IC50 [3, 17]: 0.448 µM | Emax [3, 18]: 98.8% | IC50 (P. falciparum Dd2; [19]): 2640 nM | Emax (P. falciparum Dd2; [20]): 78.6%

CN(Cc1nccs1)c1nc(-c2ccccn2)nc2c1CCNCC2 [DDD01258014, CN(CC1=NC=CS1)C1=NC(=NC2=C1CCNCC2)C1=CC=CC=N1]
IC50 [2, 13]: 1.18 µM | IC50 [2, 4]: 1.18 µM | inhibition at 2 µM ([2]; NF54, 72 h): 75.5% | IC50 [3, 5]: 2.11 µM | IC50 [3, 6]: 1.09 µM | Emax [3, 7]: 89.8% | Emax [3, 8]: 76.9% | IC50 [3, 9]: 0.455 µM | Emax [3, 10]: 98% | IC50 ([3]; 96 h incubation, Dd2 luciferase, read-out: 96 hour Pfluc IC50): 0.46 µM | IC50 (P. falciparum Dd2; [11]): 8500 nM | Emax (P. falciparum Dd2; [12]): 68.8%
